According to patent publication US20050282840A1, “Methods of modulating neurotrophin-mediated activity” (PainCeptor Pharma Corporation, priority 2004, published 2005):

Biological target: T1, p75^NTR (Rattus norvegicus, UniProt P07174)
T1 construct: ^125I-BDNF crosslinking to p75^NTR receptors on nnr5 cells expressing p75^NTR; endogenous in cells; host or cells: PC12^nnr5 cells (TrkB-transfected)
T1 sequence (P07174 30-425): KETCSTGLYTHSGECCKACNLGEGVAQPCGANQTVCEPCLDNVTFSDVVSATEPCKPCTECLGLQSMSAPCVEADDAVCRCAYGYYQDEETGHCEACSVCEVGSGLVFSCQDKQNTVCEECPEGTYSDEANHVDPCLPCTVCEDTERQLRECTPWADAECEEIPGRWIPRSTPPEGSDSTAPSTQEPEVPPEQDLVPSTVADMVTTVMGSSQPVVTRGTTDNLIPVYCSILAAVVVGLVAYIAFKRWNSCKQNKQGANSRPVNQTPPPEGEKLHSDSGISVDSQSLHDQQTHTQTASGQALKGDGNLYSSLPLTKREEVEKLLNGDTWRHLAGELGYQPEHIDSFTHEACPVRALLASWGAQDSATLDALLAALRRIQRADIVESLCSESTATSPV
T1 sequence (P23560 129-247 partner): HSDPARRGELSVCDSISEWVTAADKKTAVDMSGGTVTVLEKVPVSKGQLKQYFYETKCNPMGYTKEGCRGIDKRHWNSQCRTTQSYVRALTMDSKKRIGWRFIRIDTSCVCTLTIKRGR
Assay: 125I-BDNF crosslinking to p75^NTR receptors on nnr5 cells
Format: binding
Conditions: 0.1 nM 125I-BDNF, 2 h at 4° C., read-out: IC50 (mean±S.E.M), inhibition of 125I-BDNF crosslinking to p75^NTR
Experimental: Cells were incubated at 37° C. in 5% CO2. PC12 and PC12^nnr5 cells were maintained in RPMI-1640 medium supplemented with 10% fetal calf serum (FCS); cells were harvested by replacing the medium with calcium-magnesium-free balanced salt (Gey's) solution and incubating at 37° C. for 15 min. NIH-3T3 cells were grown in Dulbecco's modified Eagle medium: F12 containing 5% FCS; cells were harvested by replacing the medium with a 0.25% trypsin-0.53 mM ethylenediaminetetraacetic acid (EDTA) solution and incubating at 37° C. for 5 min.
The full-length TrkB cDNA was cloned into the CMV plasmid vector. Transient expression of TrkB in PC12^nnr5 cells was achieved by transfecting the cells with the TrkB expression vector using Lipofectamine Plus reagents (Invitrogen Canada Inc; Burlington, ON). PC12^nnr5 cells were passed through a syringe fitted with a 21-gauge needle several times to prevent clumping. In a 100 mm dish, 10×10^6 cells were plated and used for transfection the next day. […]
PC12 cells or TrkB-expressing PC12^nnr5 cells were recovered using Gey's solution, pelleted by centrifugation, and suspended in HKR (HEPES-Krebs Ringer Solution; [10 mM HEPES, 125 mM NaCl, 4.8 mM KCl, 1.3 mM CaCl2.2H2O, 1.2 mM MgSO4, 1.2 mM KH2PO4, 1 mg/mL BSA, 1 mg/mL glucose, pH 7.35]). […] Dried gels were registered to the autoradiograph and each labeled protein band was quantified by direct gamma counting. […]

IC50: 15.64 ± 0.05 µM
SMILES: COc1ccc(-c2ccc(C=C3C(=O)N(c4ccc(C(=O)O)cc4)N=C3C)o2)c([N+](=O)[O-])c1 (racemic) [Compound A, 4-{4-[5-(4-Methoxy-2-nitro-phenyl)-furan-2-ylmethylene]-3-methyl-5-oxo-4,5-dihydro-pyrazol-1-yl}-benzoic acid]
